Data set [1] concerns Aggregatibacter actinomycetemcomitans. To be noted: general statement, no test described; cited from earlier work.
The subject of data set [2] is oral malodor and periodontal disease. The data set is described as follows: Clinical study of antibiotic antifungal rinse in patients with halitosis.
Protocol: (§1) Tongue base, tongue dorsum, and proximal areas of the dentition were evaluated for odors. Biofilm samples from these areas were taken from each patient. A Gram stain analysis provided morphological information on the microorganisms present in the oral cavity. In addition, the microbiology of the teeth and tongue was tested with a BANA strip for red complex clusters. Six-point periodontal probing was used to assess pocket depth and bleeding points.
(§2) Treatment initially consisted of rinsing with chlorhexidine 0.2% for 2 weeks, twice daily.
(§3) The treatment chosen was the metronidazole-nystatin rinse prepared as described in Example 3. Three times a day, patients dispensed a “capful” (2 ml) of this mixture, swished and gargled for 30 seconds, and expectorated the contents. Once per day, they flossed immediately after rinsing. After each rinse with antibiotic mixture, patients were to abstain from eating or drinking for 30 minutes. After 2 weeks of rinsing, patients returned to the clinic for an evaluation of treatment. Breath odor measurements and periodontal measurements were repeated, and compared with those taken at the initial appointment. Microbiology samples of the tongue base, tongue dorsum, and teeth were taken, analyzed, and compared with the pre-treatment samples. Patients were then placed on chlorhexidine 0.2% for 2 more weeks, followed by routine rinsing with non-prescription mouthwashes that the patient selected.
The nature of a further data set: Solubility in water. The format is physicochemical. On the procedure:
A metronidazole-nystatin mixture was prepared for use as an oral rinse to treat halitosis, gingivitis, tonsillitis, and/or mild to moderate periodontal disease. Tablets of metronidazole (APO-Metronidazole™, Apotex Corp.) were crushed and grounded, the larger particles filtered out, and the fine particles mixed with nystatin suspension or nystatin powder (Nilstat™, Alimed or PMS PharmaScience) in distilled water.

Data set [3] concerns oral malodor and periodontal disease. The conditions noted are these: human, in vivo.
Protocol: as §1, §2, §3

Read-outs that look alike come from different tables or passages of the source.

Take `CC1(C)S[C@@H]2[C@H](NC(=O)[C@H](N)c3ccc(O)cc3)C(=O)N2[C@H]1C(=O)O` [amoxicillin]: in data set [1], the “response of Aggregatibacter actinomycetemcomitans” value is “responds best”.
Take `[H]/N=C(\N/C(=N/[H])NCCCCCCNC(=N)NC(=N)Nc1ccc(Cl)cc1)Nc1ccc(Cl)cc1` [chlorhexidine]: the “reduction of oral malodor” value in data set [2] (chlorhexidine 0.2% rinse alone, 2 weeks, twice daily) is recorded as “insufficient to completely reduce oral malodor”.
For the compound `CCC[C@@H]1C[C@@H](C(=O)N[C@@H]([C@H]2O[C@H](SC)[C@H](O)[C@@H](O)[C@H]2O)[C@H](C)Cl)N(C)C1` [clindamycin], the side effects entry in data set [2] (systemic metronidazole and clindamycin, followed by 0.2% chlorhexidine) is recorded as “systemic side effects”.
As for `Cc1ncc([N+](=O)[O-])n1CCO` [metronidazole], the solubility in water result in “Solubility in water” is reported as “sparingly soluble or practically insoluble”. In data set [1], the “Aggregatibacter actinomycetemcomitans responds (share of the time)” value is listed as “about 50 % of the time”. For the same compound, the side effects entry in data set [3] was “systemic side effects”.
Take `C[C@@H]1[C@H](O)[C@@H](C)/C=C/C=C/CC/C=C/C=C/C=C/C=C/C(O[C@H]2O[C@H](C)[C@@H](O)[C@H](N)[C@@H]2O)CC2O[C@](O)(CC(O)C(O)CCC(O)CC(O)CC(O)CC(=O)O[C@H]1C)CC(O)C2C(=O)O` (stereo partly shown) [nystatin]: the solubility in water entry in “Solubility in water” (water, form a suspension or dispersion) is given as “sparingly soluble or practically insoluble”.

Values taken from patent US20180230519A1, “METHODS AND KITS FOR SELECTING TREATMENT FOR ORAL INFECTIONS” (OraVital Inc., priority 2017, published 2018).
